Results taken from US20070134261A1, “Effectors of innate immunity” (priority 2001, published 2007).
Converted amounts (≈) assume the structure as drawn. Starred links: 1 amine or outer side, 2 acyl side, 3 side chain; linkers in the order of their positions; H or OH if unused. Positions of bridges follow the written chain, without caps; N, C: chain ends. Non-standard residues stand in square brackets, D forms with d. Residues, ends and D or L forms follow the SMILES beside them. Chains are numbered I, II in the order given. Actinocin(9to1) = Cc1c2oc3c(C)ccc(C(=O)[*:1])c3nc-2c(C(=O)[*:2])c(N)c1=O; NMeV = CN[C@H](C(=O)O)C(C)C; Sar = CNCC(=O)O

Columns and labels:
THP-1 cells [1] = experiment: Quantitative real-time PCR (qPCR) in THP-1 cells; format: cell-based, human; conditions: 4 μg/ml, within 1 hour of treatment (data not shown)
Method: Quantitative real-time PCR (qPCR)—Differential gene expression identified by microarray analysis was validated using quantitative real-time PCR (qPCR) using SuperScriptTM III Platinum® Two-Step qRT-PCR Kit with SYBR® Green (Invitrogen Life Technologies), as per the manufacturer's instructions, in the ABI PRISMS® 7000 sequence detection system (Applied Biosystems, Foster city, Calif., USA). Briefly, 1 μg of total RNA was reverse transcribed in a 20 μl reaction volume for 50 min at 42° C., the reaction was terminated by incubating for 5 min at 85° C. and then digested for 30 min at 37° C. with RNAse H. The PCR reaction was carried out in a 12.5 μl reaction volume containing 2.5 μl of 1/10 diluted cDNA template. A melting curve was performed to ensure that any product detected was specific to the desired amplicon. Fold changes were calculated after normalization to endogenous GAPDH and using the comparative Ct method (Pfaffl MW. A new mathematical model for relative quantification in real-time RT-PCR. Nucleic Acids Res 2001; 29:No. 9 e45).

[2] = test system: Human monocytic cells, THP-1; experiment: LPS-induced TNFα secretion by THP-1 cells (ELISA)
[3] = test system: human bronchial epithelial cells (HBE); experiment: LDH release assay (Cytotoxicity Detection Kit); format: cell-based; conditions: 100 μg/ml, 24 hours; no peptide control 1.0 ± 0.05
Procedure, shortened: (§1)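 Both read-outs were colorimetric at OD490 on HBE cells after 24 h with 100 μg of each peptide. The WST-1 assay reported viability through mitochondrial dehydrogenase cleavage of the tetrazolium salt. The LDH assay tested the removed supernatant for enzyme leaked from membrane-damaged cells.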

HBE cells [4] = experiment: WST-1 assay (cell viability); format: cell-based, human
Procedure, shortened: as §1

[5] = format: cell-based; conditions: overnight, 96-well plate
HBE cells [6] = conditions: 50 μg/ml, 4 h
THP-1 cells [7] = test system: THP-1 cells
[8] = test system: RAW 264.7 mouse macrophage cells; format: cell-based; conditions: 20 μg/ml; 1 μg/ml AraLAM
Method: The ability of compounds to neutralize the stimulation of immune cells by both Gram-negative and Gram-positive bacterial products was tested. Bacterial products stimulate cells of the immune system to produce inflammatory cytokines and when unchecked this can lead to sepsis. Initial experiments utilized the murine macrophage cell line RAW 264.7, which was obtained from the American Type Culture Collection, (Manassas, Va.), the human epithelial cell line, A549, and primary macrophages derived from the bone marrow of BALB/c mice (Charles River Laboratories, Wilmington, Mass.). The cells from mouse bone marrow were cultured in 150-mm plates in Dulbecco's modified Eagle medium (DMEM; Life Technologies, Burlington, ON) supplemented with 20% FBS (Sigma Chemical Co, St. Louis, Mo.) and 20% L cell-conditioned medium as a source of M-CSF. Once macrophages were 60-80% confluent, they were deprived of L cell-conditioned medium for 14-16 h to render the cells quiescent and then were subjected to treatments with 100 ng/ml LPS or 100 ng/ml LPS+20 μg/ml peptide for 24 hours. The release of cytokines into the culture supernatant was determined by ELISA (R&D Systems, Minneapolis, Minn.). […] The samples were centrifuged for 5 min at 2000×g, the plasma was collected and then stored at −20° C. until being analyzed for IL-8 by ELISA (R&D Systems). […] Survival was monitored for 48 hours post injection.

NFκB subunits = experiment: Translocation of NFκB subunits in nuclear extracts of THP-1 cells (Western blot, ELISA); format: cell-based, human; conditions: 60 min
Human Jurkat T cells = experiment: SDF-1 induced migration of human Jurkat T cells (Transwell); format: cell-based; conditions: SDF-1 + peptide (50 μg/ml), positive control 100%
Method: SDF-1, a C-X-C chemokine is a natural ligand for HIV-1 coreceptor-CXCR4. The chemokine receptors CXCR4 and CCR5 are considered to be potential targets for the inhibition of HIV-1 replication. […] The migration assays were performed as follows. Human Jurkat T cells were resuspended to 5×10^6/ml in chemotaxis medium (RPMI 1640/10 mM Hepes/0.5% BSA). Migration assays were performed in 24 well plates using […] polycarbonate Transwell inserts (Costar). Briefly, peptide or controls were diluted in chemotaxis medium and placed in the lower chamber while 0.1 ml cells (5×10^6/ml) was added to the upper chamber. After 3 hr at 37° C., the number of cells that had migrated into the lower chamber was determined using flow cytometry. The medium from the lower chamber was passed through a FACscan for 30 seconds, gating on forward and side scatter to exclude cell debris. The number of live cells was compared to a “100% migration control” in which 5×10^5/ml cells had been pipetted directly into the lower chamber and then counted on the FACscan for 30 seconds.

## Cc1c2oc3c(C)ccc(C(=O)N[C@@H]4C(=O)N[C@H](C(C)C)C(=O)N5CCC[C@H]5C(=O)N(C)CC(=O)N(C)[C@@H](C(C)C)C(=O)O[C@@H]4C)c3nc-2c(C(=O)N[C@@H]2C(=O)N[C@H](C(C)C)C(=O)N3CCC[C@H]3C(=O)N(C)CC(=O)N(C)[C@@H](C(C)C)C(=O)O[C@@H]2C)c(N)c1=O [Actinomycin D] (I: T[dV]P[Sar][NMeV] / II: T[dV]P[Sar][NMeV]; ester I:1-I:C, II:1-II:C; linker I:N-II:N via Actinocin(9to1))
THP-1 cells [1]
  inhibition of LPS-induced transcription of TNFα and TNFAIP2 genes: more than 96%
[2]; 4 μg/ml, LPS-stimulated THP-1 cells
  reduction of TNFα release: 97.6%

## CC[C@@]1([C@@H]2O[C@@H]([C@H]3O[C@@](O)(CO)[C@H](C)C[C@@H]3C)C[C@@H]2C)CC[C@H]([C@]2(C)CC[C@]3(C[C@H](O)[C@@H](C)[C@@H]([C@@H](C)[C@@H](OC)[C@H](C)C(=O)O)O3)O2)O1 [Monensin]
[2]; LPS stimulation for 60 min
  TNFα within cells (cytoplasmic extracts): accumulation of TNFα within cells

## CC[C@H](C)[C@H](NC(=O)[C@H](CCCCN)NC(=O)[C@H](CCC(=O)O)NC(=O)[C@H](CCCCN)NC(=O)[C@H](CO)NC(=O)[C@H](CCCCN)NC(=O)[C@H](CCCNC(=N)N)NC(=O)[C@H](Cc1ccccc1)NC(=O)[C@H](Cc1ccccc1)NC(=O)[C@H](CC(=O)O)NC(=O)CNC(=O)[C@H](CC(C)C)NC(=O)[C@@H](N)CC(C)C)C(=O)NCC(=O)N[C@@H](CCCCN)C(=O)N[C@@H](CCC(=O)O)C(=O)N[C@@H](Cc1ccccc1)C(=O)N[C@@H](CCCCN)C(=O)N[C@@H](CCCNC(=N)N)C(=O)N[C@H](C(=O)N[C@H](C(=O)N[C@@H](CCC(N)=O)C(=O)N[C@@H](CCCNC(=N)N)C(=O)N[C@H](C(=O)N[C@@H](CCCCN)C(=O)N[C@@H](CC(=O)O)C(=O)N[C@@H](Cc1ccccc1)C(=O)N[C@@H](CC(C)C)C(=O)N[C@@H](CCCNC(=N)N)C(=O)N[C@@H](CC(N)=O)C(=O)N[C@@H](CC(C)C)C(=O)N[C@H](C(=O)N1CCC[C@H]1C(=O)N[C@@H](CCCNC(=N)N)C(=O)N[C@H](C(=O)N[C@@H](CCC(=O)O)C(=O)N[C@@H](CO)C(=O)O)[C@@H](C)O)C(C)C)[C@@H](C)CC)C(C)C)[C@@H](C)CC [SEQ ID NO: 1, reference compound]
[3]
  LDH Release (OD490 nm): 1.18 ± 0.05 OD490 nm
HBE cells [4]
  OD490 nm (WST-1 cell viability): 1.62 ± 0.34 OD490 nm
[5]; Citobacter rhodensis
  MIC, C. rhod.: 8 µg/mL (≈ 1.78 µM)
[5]; Enterohaemorrhagic E. coli
  MIC, EHEC: 4 µg/mL (≈ 0.89 µM)
[5]; Escherichia coli
  MIC, E. coli: 32 µg/mL (≈ 7.12 µM)
[5]; Pseudomonas aeruginosa
  MIC, P. aerug.: 96 µg/mL (≈ 21.4 µM)
[5]; Salmonella enteritidis ssp. typhimurium
  MIC, S. typhim.: 64 µg/mL (≈ 14.2 µM)
HBE cells [6]
  Ratio of SEQ ID NO: 1-treated:control, L41559 6-pyruvoyl-tetrahydropterin synthase/dimerization cofactor of hepatocyte nuclear factor 1 alpha: 0.20
  Ratio of SEQ ID NO: 1-treated:control, NM_000120 epoxide hydrolase 1, microsomal: 0.22
THP-1 cells [7]
  cytotoxicity: not cytotoxic

## Polymyxin B
[8]
  Inhibition of TNF-α: 15 ± 2%
[3]
  LDH Release (OD490 nm): 1.21 ± 0.03 OD490 nm
HBE cells [4]
  OD490 nm (WST-1 cell viability): 1.30 ± 0.13 OD490 nm
NFκB subunits
  inhibition of LPS-induced p50 translocation: 82±5%
  inhibition of LPS-induced p65 translocation: 80±90%

## SEQ 1D 1 (LLGDFFRKSKEKIGKEFKRIVQRIKDFLRNLVPRTES)
Human Jurkat T cells; Experiment 1
  Migration (%): 0%
Human Jurkat T cells; Experiment 2
  Migration (%): 0%
